Measured values reported in US20140243281A1, “BILE ACID RECYCLING INHIBITORS FOR TREATMENT OF PEDIATRIC CHOLESTATIC LIVER DISEASES” (Lumena Pharmaceuticals, Inc., priority 2011, published 2014).
Read-outs that look alike come from different tables or passages of the source. Marks after values point to notes of the source that are not given here.

How the values were obtained:
[1] = system: Male Zucker diabetic fatty rats (ZDF/GmiCrl-fa/fa); assay: Fecal bile acid excretion and plasma bile acid concentrations in ZDF rats given 264W94; type: in vivo, rat; settings: 2 weeks
Method: Male Zucker diabetic fatty rats (ZDF/GmiCrl-fa/fa) were purchased from Charles River (Raleigh, N.C.) and housed under controlled conditions (12:12 light-dark cycle, 24° C. and 50% relative humidity) with free access to rodent food (Purina 5008, Harlan Teklad, Indianapolis, Ind.). All rats arrived at seven weeks of age (±3 days). After a one-week acclimation period, rats were anesthetized with isoflurane (Abbott Laboratories, IL) and tail-vein blood samples were collected at 9 am without fasting. Blood glucose levels were measured using a glucometer (Bayer, Leverkusen, Germany). In order to ensure balanced treatment groups, ZDF rats were assigned to six treatment groups based upon baseline glucose: vehicle (0.5% HPMC, 0.1% Tween80) and five doses of 264W94 (0.001, 0.01, 0.1, 1, 10 mg/kg). All treatments were given via oral gavage twice a day and animals were followed for two weeks with blood samples collected from tail vein at the end of each week at 9 am without fasting. Fecal samples were collected for 24 hours during the second week of treatment.
Non-esterified fatty acids (NEFA), bile acids, and bile acids in fecal extraction were measured using the Olympus AU640 clinical chemistry analyzer (Beckman Coulter, Irving, Tex.).

Male beagle dogs [2] = assay: Duration of action on dog serum bile acids, Method 1: two meals for extended SBA elevation; type: in vivo; settings: for Serum Bile Acid, Mean: full meal at 0 hr, dosed at 1 hr, half meal at 4 hr
Method: (§1) Test compound: LUM001-Form I
(§2) LUM001 was dissolved in water at concentrations that required the administration of 0.2 ml/kg of solution. Solutions were placed into gelatin capsules, Torpac Inc., size 13 Batch 594, East Hanover N.J., and administered orally.
(§3) Male beagle dogs were obtained from Covance Research Products, Cumberland Va. or Marshall Farms USA, Inc., North Rose N.Y. A total of 20 dogs, 1 to 5 years old, 6.8 to 15.6 kg body weight, were used in these experiments. The dogs were conditioned to a 12 hour light/dark cycle and maintained on a feeding restriction of 1 hour per day access to food (Richman Standard Certified Canine Diet #5007, PMI Nutrition, Inc., St Louis Mo.) from 7 to 8 AM. They were trained to eat a special meal promptly within 20 minutes when presented (1 can. 397 g, Evanger's 100% Beef for Dogs, Evanger's Dog and Cat Food Co., Inc., Wheeling Ill., mixed with 50 g of sharp cheddar cheese.).
(§4) SBA was measured by an enzymatic assay. SBA values are expressed as μg of total bile acids/ml of serum.
To estimate the details of this plateau, 6 dogs were given a test meal and blood samples for SBA measurement were collected at −30, 0, 30, 60, 65, 70, 80, 90, 120, 180, 240, 360, 480, 720, 1410 and 1440 minutes from the time of feeding. Any remaining food was removed 20 min after it was first presented to the dogs. To establish a method for extending the elevated plateau of SBA, 6 dogs were given the meal at 0 hr and an additional ½ size meal again 4 hr after their first meal. Blood samples were taken at 0, 1, 2, 3, 4, 4.5, 6, 7 and 8 hr. The curves for SBA level vs time obtained in these experiments were used as references for determining blood sampling times in experiments with LUM001. Wherever possible, experimental design permitting, in experiments with test compound, each dog served as its own simultaneous control, and the mean 1 hr SBA value served as the reference to which all other mean values were compared.
In dogs a single experimental meal produces a postprandial rise in SBA that is elevated to a peak at 1 hour after feeding and constant for an additional 3 hours. Previous experiments (2) indicate that LUM001 remains active for more than 4.5 hours. To measure the duration of action of an ASBT inhibitor using postprandial SBA levels requires that in the control situation the SBA levels remain elevated and constant for the entire period of compound action, or that the compound be administered long before the postprandial rise occurs, and remain active in the empty digestive system for long periods before feeding. Accordingly, two alternative methods were used to provide a window of constant SBA elevation that could be used to measure the duration of action of ASBT inhibitors.
[…] At 4 hours after the meal was offered, a second meal of ½ the size of the first meal was offered. It too was consumed as promptly and thoroughly as the first meal, and provided an extended, constant SBA plateau. Blood samples for SBA measurement were taken at 0, 1, 1.5, 2, 4, 4.5, 5, 5.5, 6, 6.5, 7, 7.5 and 8 hours from the time of offering the first meal. Mean SBA levels were compared to the mean SBA level at 1 hour, each dog serving as its own control.
All animals were fed a full meal at 0 hour, dosed orally with the compound at 1 hour and then fed an additional one-half meal at 4 hours. *=p<0.05 compared to the mean value in the same curve at 1 hour by two-tailed paired two-sample t-test.

[3] = Pharmacokinetics (systemic exposure) of LUM001 in pediatric subjects; type: in vivo, human; settings: for concentration at 8 day: human, serum, read-out: Average serum drug exposure
Method: (§5) LUM001 has been administered to forty patients under the age of 18 years old. […] The drug was administered once-a-day (QD) in the morning for fourteen days. […] These doses are similar to those using to treat children with cholestatic diseases.

[4] = system: treated subjects aged 10-17; assay: Pediatric multiple-dose study, tolerability; type: in vivo, human; settings: 2 weeks daily up to 5 mg q.d.; 39 treated subjects aged 10-17
From the text: (39 treated subjects aged 10-17).

healthy, adult subjects = assay: Phase 1 ascending multiple oral doses in healthy subjects: serum and fecal bile acid analysis; type: in vivo, human; settings: 28 days
Method: This Phase 1 study was a randomized, double-blind, placebo-controlled study of ascending multiple oral doses of LUM001 in healthy, adult subjects. This study was conducted at a single center. There were 13 LUM001 dosing panels: 10, 20, 60, 100, and 20 mg every morning (qAM) (2) (i.e., the regimen was tested a second time in the study), 5 mg every evening (qPM), 0.5, 1, 2.5, 5, 2.5 (2), 5 (2), and 0.5 to 5 mg qAM dose titration. Most of the dosing panels included subjects treated with matching placebo. Shown in the graphs are data from the 0.5 (n=16), 1.0 (n=8), 2.5 (n=8), 5.0 (n=8) and 10 (n=8) mg dosing groups. […]
SBA were analyzed as part of the routine clinical analysis of the serum samples collected at each time point.
Fecal samples were collected for all panels except the dose-titration panel, 2.5 (2) and 5 mg (2), on Days 9 through 14 and 23 through 28 (data shown in FIG. 4). Twenty-four hour FBA excretions were quantified by Pharmacia for Days 9 through 14 and 23 through 28. […] The weight of each 24-hour fecal collection was recorded on the CRFs. […]
An aliquot for each 24-hour fecal sample collected on Days 23 through 28 was combined, homogenized, and analyzed for bile acid species concentrations by ANAPHARM. The fecal bile acid species evaluated include chenodeoxycholic acid, cholic acid, deoxycholic acid, and lithocholic acid.

[5] = system: children and adolescents under the age of eighteen; assay: Fasting serum bile acid and morning post-prandial peak in pediatric subjects; type: in vivo, human; settings: QD in the morning
Method: as §5
The efficacy of LUM001 was determined by measuring total serum bile acids after eight days of dosing in children and adolescents under the age of eighteen. Thirty minutes before the next drug administration, at approximately 8 am in the morning, serum bile acid levels were measured. The child had refrained from food for 12 hours prior to this sample thus providing a fasted level of serum bile acid. After breakfast, serum bile acids were measured for up to the next 4 hours (8 am to noon) and the peak serum bile acid concentration noted.

Male beagle dogs [6] = assay: Time to onset of activity on postprandial serum total bile acids in beagle dogs; type: in vivo; settings: dog
Method: as §1, §2, §3, §4
To estimate the details of this plateau, 6 dogs were given a test meal and blood samples for SBA measurement were collected at −30, 0, 30, 60, 65, 70, 80, 90, 120, 180, 240, 360, 480, 720, 1410 and 1440 minutes from the time of feeding. Any remaining food was removed 20 min after it was first presented to the dogs. […]

Male ZDF rats = assay: Plasma bile acid levels of ZDF rats after ascending doses of SC-435 and LUM002; type: in vivo, rat; settings: ZDF rats n=4; all doses (SC-435 1, 10, 30 mg/kg; LUM002 0.3, 1, 3, 10, 30 mg/kg) oral gavage twice a day, 2 weeks
Method: FIG. 2. Plasma bile acid levels of ZDF rats after administration of ascending doses of SC-435 and LUM002. Male ZDF rats (n=4) were administered vehicle, SC-435 (1, 10 or 30 mg/kg) or LUM002 (0.3, 1, 3, 10 or 30 mg/kg) by oral gavage twice a day for 2 weeks. Plasma bile acid levels were determined at the end of the second week. Data are expressed as mean values±SEM.
Male ZDF rats (n=4) were administered vehicle, SC-435 (1, 10 or 30 mg/kg) or LUM002 (0.3, 1, 3, 10 or 30 mg/kg) by oral gavage twice a day for 2 weeks. Plasma bile acid levels were determined at the end of the second week. […] Data are expressed as mean values±SEM.

Question: For `CCCC[C@]1(CC)CS(=O)(=O)c2cc(OC)c(OC)cc2[C@@H](c2ccccc2)N1` [Compound 264W94], which “Fecal bile acid concentrations elevated compared to vehicle treated rats” value ([1]; 0.001-10 mg/kg oral gavage twice a day, 24 h feces in second week) is on record?
Answer: up to 6.5 fold

Question: What about the “ED50 for elevation of fecal bile acid concentrations” value ([1]; oral gavage twice a day) of the same compound?
Answer: 0.17 mg/kg

Question: What about the “Fecal NEFA” value ([1]; oral gavage twice a day) of the same compound?
Answer: slightly increased

Question: And the “Plasma bile acid concentrations” value ([1]; oral gavage twice a day)?
Answer: decreased dose-dependently

Question: For `CCCCC1(CCCC)CS(=O)(=O)c2ccc(N(C)C)cc2[C@@H](c2ccc(OCc3ccc(C[N+]45CCN(CC4)CC5)cc3)cc2)[C@H]1O` [LUM001], which “Serum Bile Acid, Mean” value (Male beagle dogs [2]; 0 hr) is on record?
Answer: 1.4 µg/mL

Question: And the “Serum Bile Acid, Mean” value (Male beagle dogs [2]; 1 hr)?
Answer: 9.2 µg/mL

Question: What about the “Serum Bile Acid, Mean” value (Male beagle dogs [2]; 1.5 hr) of the same compound?
Answer: 9.6 µg/mL

Question: And the “Serum Bile Acid, Mean” value (Male beagle dogs [2]; 2 hr)?
Answer: 6.7 µg/mL

Question: And the “Serum Bile Acid, Mean” value (Male beagle dogs [2]; 4 hr)?
Answer: 5.1* μg/ml

Question: And the “Serum Bile Acid, Mean” value (Male beagle dogs [2]; 4.5 hr)?
Answer: 6.4 µg/mL

Question: What about the “Serum Bile Acid, Mean” value (Male beagle dogs [2]; 5 hr) of the same compound?
Answer: 7.0 µg/mL

Question: And the “Serum Bile Acid, Mean” value (Male beagle dogs [2]; 6 hr)?
Answer: 7.0 µg/mL

Question: What about the “Serum Bile Acid, Mean” value (Male beagle dogs [2]; 7 hr) of the same compound?
Answer: 7.4 µg/mL

Question: And the “Serum Bile Acid, Mean” value (Male beagle dogs [2]; 8 hr)?
Answer: 6.5 µg/mL

Question: What about the “Time LUM001 remains active” value (Male beagle dogs [2]; previous experiments) of the same compound?
Answer: more than 4.5 hours

Question: What about the “Systemic absorption (levels of systemic exposure measured on day eight)” value ([3]; children, once-a-day in the morning for fourteen days) of the same compound?
Answer: minimally absorbed

Question: And the concentration at 8 day ([3]; Subject 0308, 1.0 mg, 28.9 μg/kg QD)?
Answer: 0 ng/mL

Question: And the concentration at 8 day ([3]; Subject 0410, 2.5 mg, 42.0 μg/kg QD)?
Answer: 0 ng/mL

Question: And the concentration at 8 day ([3]; Subject 0510, 5.0 mg, 168.4 μg/kg QD)?
Answer: 0 ng/mL

Question: What about the Tolerability [4] of the same compound?
Answer: well-tolerated

Question: And the Fecal bile acids (healthy, adult subjects)?
Answer: significant increase

Question: What about the Serum bile acids (healthy, adult subjects) of the same compound?
Answer: significant reduction

Question: And the “Decrease of fasting serum bile acid level versus placebo patients” value [5]?
Answer: 24%

Question: What about the “Decrease of post-prandial peak serum bile acid level versus placebo patients” value [5] of the same compound?
Answer: 23%

Question: And the “Time after dosing to significantly lowered SBA levels” value (Male beagle dogs [6]; 0.05 mg/kg oral)?
Answer: 1 to 2 h

Question: What about the “Serum Bile Acid, Mean” value (Male beagle dogs [6]; 1 mg/kg p.o., 0 min from feeding, fed at 0 min, dosed at 60 min) of the same compound?
Answer: 2.8 µg/mL

Question: For `CCCC[C@]1(CC)CS(=O)(=O)c2ccc(N(C)C)cc2[C@@H](c2cccc(NC(=O)N[C@@H]3O[C@H](COS(=O)(=O)[O-])[C@@H](O)[C@H](OCc4ccccc4)[C@H]3O)c2)[C@H]1O.[K+]` [LUM002], which “Plasma bile acid levels” value (Male ZDF rats) is on record?
Answer: decreased

Question: Which “Plasma bile acid levels” value (Male ZDF rats) does the source give for `CCCCC1(CCCC)CS(=O)(=O)c2ccc(N(C)C)cc2[C@@H](c2ccc(OCCCC[N+]34CCN(CC3)CC4)cc2)[C@H]1O.CS(=O)(=O)[O-]` [SC-435, 1-[4-[4-[(4R,5R)-3,3-dibutyl-7-(dimethylamino)-2,3,4,5-tetrahydro-4-hydroxy-1,1-dioxido-1-benzothiepin-5-yl]phenoxy]butyl]-4-aza-1-azoniabicyclo[2.2.2]octane methanesulfonate salt, reference compound] here?
Answer: decreased
